Test results: ChEMBL document CHEMBL1143656, “A novel series of potent gamma-secretase inhibitors based on a benzobicyclo[4.2.1]nonane core” (Bioorg Med Chem Lett, 2005)

system: Mus musculus; test: Reduction of […] beta-40 in transgenic APP-YAC mice 4 hr after 100 mg/kg peroral dose; format: functional; settings: route oral

Row | SMILES | Reduction
1 | O=S(=O)(NC1C2CCC1Cc1cc(/C=C/CN3CCOCC3)ccc1C2)c1ccc(Cl)s1 (stereo in doubt; form 1) [listing 1 of 2 here] | 50%

molecular target: Gamma-secretase; test: Inhibitory concentration against Gamma-secretase in whole cell inhibition assay using SH-SY5Y cells; format: functional, cell-based, Homo sapiens; settings: not given

Row | IC50 | SMILES
2 | > 1000 nM | O=C(CCc1ccccc1)Nc1ccc2c(c1)CC1CCC(C2)C1NS(=O)(=O)c1ccccc1 (stereo not given)
3 | 610 nM | CCCCS(=O)(=O)NC1C2CCC1Cc1ccccc1C2 (stereo not given)
4 | 535 nM | CC(C)CCCC(=O)Nc1ccc2c(c1)CC1CCC(C2)C1NS(=O)(=O)c1ccccc1 (stereo not given)
5 | 5 nM | O=S(=O)(NC1C2CCC1Cc1cc(/C=C/CN3CCOCC3)ccc1C2)c1ccc(Cl)s1 (racemic)
6 | > 1000 nM | CCCCCS(=O)(=O)NC1C2CCC1Cc1ccccc1C2 (stereo not given)
7 | 15 nM | O=S(=O)(NC1C2CCC1Cc1cc(/C=C/Cn3ccnc3)ccc1C2)c1ccc(Cl)s1 (stereo not given)
8 | 209 nM | O=S(=O)(NC1C2CCC1Cc1cc(OCCN3CCC(O)C3)ccc1C2)c1ccc(Cl)s1 (stereo not given)
9 | > 1000 nM | O=C(Nc1ccc2c(c1)CC1CCC(C2)C1NS(=O)(=O)c1ccccc1)c1ccccc1 (stereo not given)
10 | 315 nM | O=S(=O)(NC1C2CCC1Cc1cc(/C=C/CN3CCOCC3)ccc1C2)c1ccc(Cl)s1 (stereo in doubt; form 2)
11 | 269 nM | O=S(=O)(NC1C2CCC1Cc1cc(O)ccc1C2)c1ccc(Cl)s1 (stereo not given)
12 | > 1000 nM | O=S(=O)(NC1C2CCC1Cc1ccccc1C2)c1cc(Cl)c(Cl)s1 (stereo not given)
13 | 335 nM | CC1CCCN1CCOc1ccc2c(c1)CC1CCC(C2)C1NS(=O)(=O)c1ccc(Cl)s1 (stereo not given)
14 | 412 nM | O=C(Nc1ccc2c(c1)CC1CCC(C2)C1NS(=O)(=O)c1ccccc1)OCc1cccc(Cl)c1 (stereo not given)
15 | > 1000 nM | CCc1ccc(S(=O)(=O)NC2C3CCC2Cc2ccccc2C3)cc1 (stereo not given)
16 | 16 nM | O=C(Nc1ccc2c(c1)CC1CCC(C2)C1NS(=O)(=O)c1ccccc1)OCc1ccc(Cl)cc1 (stereo not given)
17 | 651 nM | Cc1ccc(S(=O)(=O)NC2C3CCC2Cc2ccccc2C3)cc1 (stereo not given)
18 | 70 nM | O=S(=O)(NC1C2CCC1Cc1cc(F)ccc1C2)c1ccccc1 (stereo not given)
19 | 21 nM | O=S(=O)(NC1C2CCC1Cc1cc(/C=C/CN3CCN(c4ccccc4)CC3)ccc1C2)c1ccc(Cl)s1 (stereo not given)
20 | 50 nM | O=S(=O)(NC1C2CCC1Cc1ccccc1C2)c1cccs1 (stereo not given)
21 | > 1000 nM | O=S(=O)(NC1C2CCC1Cc1ccccc1C2)c1ccc(C(F)(F)F)cc1 (stereo not given)
22 | 146 nM | O=S(=O)(NC1C2CCC1Cc1cc(Cl)ccc1C2)c1ccc(Cl)s1 (stereo not given)

Row | IC50 | SMILES
23 | 34 nM | O=S(=O)(NC1C2CCC1Cc1c(F)cccc1C2)c1ccc(Cl)s1 (stereo not given)
24 | > 1000 nM | CCS(=O)(=O)NC1C2CCC1Cc1ccccc1C2 (stereo not given)
25 | > 1000 nM | CCCCCC(=O)Nc1ccc2c(c1)CC1CCC(C2)C1NS(=O)(=O)c1ccccc1 (stereo not given)
26 | 7 nM | O=C(CN1CCOCC1)Nc1ccc2c(c1)CC1CCC(C2)C1NS(=O)(=O)c1ccc(Cl)s1 (stereo not given)
27 | > 1000 nM | COCC(=O)Nc1ccc2c(c1)CC1CCC(C2)C1NS(=O)(=O)c1ccccc1 (stereo not given)
28 | 1 nM | O=S(=O)(NC1C2CCC1Cc1cc(/C=C/CN3CCOCC3)ccc1C2)c1ccc(Cl)s1 (stereo in doubt; form 1) [listing 1 of 2 here]
29 | > 1000 nM | O=[N+]([O-])c1ccc(S(=O)(=O)NC2C3CCC2Cc2ccccc2C3)cc1 (stereo not given)
30 | 69 nM | CN1CCN(CC(=O)Nc2ccc3c(c2)CC2CCC(C3)C2NS(=O)(=O)c2ccc(Cl)s2)CC1 (stereo not given)
31 | 175 nM | O=S(=O)(NC1C2CCC1Cc1c(Cl)cccc1C2)c1ccc(Cl)s1 (stereo not given)
32 | > 1000 nM | O=C(Nc1ccc2c(c1)CC1CCC(C2)C1NS(=O)(=O)c1ccccc1)c1cccnc1 (stereo not given)
33 | 190 nM | O=S(=O)(NC1C2CCC1Cc1ccccc1C2)c1ccccc1 (stereo not given)
34 | 623 nM | O=S(=O)(NC1C2CCC1Cc1cc(OCCN3CCC(O)CC3)ccc1C2)c1ccc(Cl)s1 (stereo not given)
35 | 6 nM | O=C(CN1CCCCC1)Nc1ccc2c(c1)CC1CCC(C2)C1NS(=O)(=O)c1ccc(Cl)s1 (stereo not given)
36 | 152 nM | O=S(=O)(NC1C2CCC1Cc1cc(/C=C/CN3CCCCC3)ccc1C2)c1ccc(Cl)s1 (stereo not given)
37 | 490 nM | COc1ccc2c(c1)CC1CCC(C2)C1NS(=O)(=O)c1ccc(Cl)s1 (stereo not given)
38 | 62 nM | O=S(=O)(NC1C2CCC1Cc1ccccc1C2)c1ccc(Cl)s1 (stereo not given)
39 | 12 nM | O=C(Nc1ccc2c(c1)CC1CCC(C2)C1NS(=O)(=O)c1ccc(Cl)s1)c1ccccn1 (stereo not given)
40 | 23 nM | O=C(Nc1ccc2c(c1)CC1CCC(C2)C1NS(=O)(=O)c1ccc(Cl)s1)OCc1ccccc1 (stereo not given)
41 | > 1000 nM | CC(=O)Nc1ccc2c(c1)CC1CCC(C2)C1NS(=O)(=O)c1ccccc1 (stereo not given)
42 | 5 nM | O=S(=O)(NC1C2CCC1Cc1cc(OCCN3CCOCC3)ccc1C2)c1ccc(Cl)s1 (stereo not given)
43 | 239 nM | O=S(=O)(NC1C2CCC1Cc1ccccc1C2)c1ccccc1F (stereo not given)

Row | IC50 | SMILES
44 | 74 nM | O=C(Nc1ccc2c(c1)CC1CCC(C2)C1NS(=O)(=O)c1ccccc1)OCc1ccccc1 (stereo not given)
45 | 6000 nM | Nc1ccc2c(c1)CC1CCC(C2)C1NS(=O)(=O)c1ccccc1 (stereo not given)
46 | 7 nM | O=C(CN1CCCC1)Nc1ccc2c(c1)CC1CCC(C2)C1NS(=O)(=O)c1ccc(Cl)s1 (stereo not given)
47 | 29 nM | O=S(=O)(NC1C2CCC1Cc1cc(F)ccc1C2)c1ccc(Cl)s1 (stereo not given)
48 | 3490 nM | O=C(CNCc1ccccc1)Nc1ccc2c(c1)CC1CCC(C2)C1NS(=O)(=O)c1ccc(Cl)s1 (stereo not given)
49 | 75 nM | O=C(Nc1ccc2c(c1)CC1CCC(C2)C1NS(=O)(=O)c1ccccc1)c1ccccn1 (stereo not given)
50 | 41 nM | CCN(CC)CC(=O)Nc1ccc2c(c1)CC1CCC(C2)C1NS(=O)(=O)c1ccc(Cl)s1 (stereo not given)
51 | > 1000 nM | Cc1cccc(S(=O)(=O)NC2C3CCC2Cc2ccccc2C3)c1 (stereo not given)
52 | 5 nM | O=C(CN1CCN(c2ccccc2)CC1)Nc1ccc2c(c1)CC1CCC(C2)C1NS(=O)(=O)c1ccc(Cl)s1 (stereo not given)
53 | 73 nM | O=S(=O)(NC1C2CCC1Cc1cc(OCCN3CCCCC3)ccc1C2)c1ccc(Cl)s1 (stereo not given)
54 | 39 nM | CN1CCN(C/C=C/c2ccc3c(c2)CC2CCC(C3)C2NS(=O)(=O)c2ccc(Cl)s2)CC1 (stereo not given)
55 | 467 nM | O=S(=O)(NC1C2CCC1Cc1ccccc1C2)c1ccc(Cl)cc1 (stereo not given)
56 | 226 nM | CN(CC(=O)Nc1ccc2c(c1)CC1CCC(C2)C1NS(=O)(=O)c1ccc(Cl)s1)Cc1ccccc1 (stereo not given)
57 | 129 nM | O=S(=O)(NC1C2CCC1Cc1ccccc1C2)c1ccc(F)cc1 (stereo not given)
58 | 324 nM | O=S(=O)(NC1C2CCC1Cc1ccccc1C2)c1cccc(F)c1 (stereo not given)
59 | > 1000 nM | O=C(Nc1ccc2c(c1)CC1CCC(C2)C1NS(=O)(=O)c1ccccc1)c1ccncc1 (stereo not given)
60 | > 1000 nM | CC(C)(C)c1ccc(S(=O)(=O)NC2C3CCC2Cc2ccccc2C3)cc1 (stereo not given)
61 | 153 nM | O=C(Nc1ccc2c(c1)CC1CCC(C2)C1NS(=O)(=O)c1ccccc1)OCc1ccccc1Cl (stereo not given)
62 | 721 nM | CCCS(=O)(=O)NC1C2CCC1Cc1ccccc1C2 (stereo not given)
63 | 227 nM | CC1CCCCN1CCOc1ccc2c(c1)CC1CCC(C2)C1NS(=O)(=O)c1ccc(Cl)s1 (stereo not given)

system: Mus musculus; test: Concentration of […] beta40 in plasma of transgenic APP-YAC mice 4 hr after 100 mg/kg peroral dose; format: functional, organism-based; set-up: dose 100 mg/kg; settings: not given

Row | SMILES | Plasma concentration
64 | O=S(=O)(NC1C2CCC1Cc1cc(/C=C/CN3CCOCC3)ccc1C2)c1ccc(Cl)s1 (stereo in doubt; form 1) [listing 2 of 2 here] | > 7.91 µM

system: Mus musculus; test: Concentration of […] beta40 in brain of transgenic APP-YAC mice 4 hr after 100 mg/kg peroral dose; format: functional; settings: route oral

Row | SMILES | Brain concentration
65 | O=S(=O)(NC1C2CCC1Cc1cc(/C=C/CN3CCOCC3)ccc1C2)c1ccc(Cl)s1 (stereo in doubt; form 1) [listing 1 of 2 here] | 16.7 µM
